Target: scRio2 (Saccharomyces cerevisiae, UniProt P40160)
Sequence (P40160 whole entry): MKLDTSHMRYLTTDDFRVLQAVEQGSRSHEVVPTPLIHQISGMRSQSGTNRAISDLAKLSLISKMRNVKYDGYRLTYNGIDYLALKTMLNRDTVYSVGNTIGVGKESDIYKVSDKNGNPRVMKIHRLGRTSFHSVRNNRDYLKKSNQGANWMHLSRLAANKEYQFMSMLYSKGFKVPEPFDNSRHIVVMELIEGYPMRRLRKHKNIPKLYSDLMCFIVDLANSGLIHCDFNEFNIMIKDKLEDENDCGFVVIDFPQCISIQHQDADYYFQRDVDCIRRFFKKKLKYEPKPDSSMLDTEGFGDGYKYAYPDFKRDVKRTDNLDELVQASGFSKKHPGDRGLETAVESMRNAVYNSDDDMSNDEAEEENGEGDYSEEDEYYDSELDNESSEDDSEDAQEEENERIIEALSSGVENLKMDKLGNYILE

Nc1ncnc2c1ncn2[C@@H]1O[C@H](COP(=O)(O)OP(=O)(O)OP(=O)(O)O)[C@@H](O)[C@H]1O [ATP]
autophosphorylation detected by mass spectrometry: phospho-serine residues after incubation of purified recombinant scRio2 with ATP
